Assay results as given in patent US20210130401A1, “PEPTIDOMIMETIC INHIBITORS OF THE WDR5-MLL INTERACTION” (THE REGENTS OF THE UNIVERSITY OF MICHIGAN, priority 2017, published 2021).
Read-outs that look alike come from different tables or passages of the source. Blank lines part the entries; values can stand above or below the compound they belong to. Starred links: 1 amine or outer side, 2 acyl side, 3 side chain; linkers in the order of their positions; H or OH if unused. Positions of bridges follow the written chain, without caps; N, C: chain ends. Non-standard residues stand in square brackets, D forms with d. Residues, ends and D or L forms follow the SMILES beside them. *: point of attachment. dαMeLys(Me) = CN(CCCC[C@@](C)(N[*:1])C(=O)[*:2])[*:3]; dαMeDab = C[C@](CCN[*:3])(N[*:1])C(=O)[*:2]; Arg(Me2s) = CN=C(NC)NCCC[C@H](N)C(=O)O; dPhg(4-F) = N[C@@H](C(=O)O)c1ccc(F)cc1; Arg(Me) = CNC(=N)NCCC[C@H](N)C(=O)O; d(αMeOrn) = C[C@@](N)(CCCN)C(=O)O; d(αMeK) = C[C@@](N)(CCCCN)C(=O)O; dPhg = N[C@@H](C(=O)O)c1ccccc1; Phg = N[C@H](C(=O)O)c1ccccc1; αMeK = C[C@](N)(CCCCN)C(=O)O; Isobutyryl = CC(C)C(=O)*; dAbu = CC[C@@H](N)C(=O)O; Abu = CC[C@H](N)C(=O)O

Key:
[1] = system: MOLM-13 leukemia cells carrying MLL-AF9 fusion; assay: cell viability assay (WST-8), MOLM-13; format: cell-based; details: Homo sapiens, MOLM-13, 96 h, read-out: Cell Growth Inhibition IC50 (μM) MOLM-13
Experimental: (§1) To assess cell viability, MOLM-13 leukemia cells carrying MLL-AF9 fusion, MV4;11 leukemia cells carrying MLL-AF4 fusion or HL-60 leukemia cells carrying no MLL fusion were seeded 1×10^4 cell/well in 96-well plates and treated with an inhibitor for 4 days at different concentrations, in culture media containing 0.2% DMSO as the final concentration. Cell viability was determined using the WST-8 cell proliferation assay kit (Dojindo Molecular Technologies) according to manufacturer's instructions. Three independent experiments in triplicates were performed.

WDR5 = target: T1, WDR5 (Homo sapiens, UniProt P61964); assay: fluorescence polarization (FP) based competitive binding assay to WDR5 protein
T1 construct: N-terminal His-tagged WDR5 protein (residues 24-334), named WDR5Δ23; made in house; host or cells: E. coli Rosetta 2 (DE3)
Experimental: The plates were incubated at room temperature on a shaker for 3h, and then the mP values were measured using the Tecan Infinite M-1000 plate reader (Tecan U.S., Research Triangle Park, N.C.).

[2] = system: HL-60 leukemia cells carrying no MLL fusion; assay: cell viability assay (WST-8), HL-60; format: cell-based; details: Homo sapiens, HL-60, 96 h, read-out: Cell Growth Inhibition IC50 (μM) HL-60
Experimental: Cell viability was determined using the WST-8 cell proliferation assay kit (Dojindo Molecular Technologies) according to manufacturer's instructions. Three independent experiments in triplicates were performed.

[3] = system: MV4;11 leukemia cells carrying MLL-AF4 fusion; assay: cell viability assay (WST-8), MV4;11; format: cell-based; details: Homo sapiens, MV4-11, 96 h, read-out: Cell Growth Inhibition IC50 (μM) MV-4-11
Experimental: as §1

[4] = calculated from IC50 by published equation, read-out: Binding Affinity to WDR5 Ki ± SD
[5] = read-out: Binding Affinity to WDR5 IC50 ± SD
[6] = amide bond, 14-membered ring, HATU/DIEA, DMF, with chain assembly

IC50 ([1]; 4 days treatment): 1.28 ± 0.01 µM
Ki (WDR5; [4]): < 0.001 µM
IC50 (WDR5; [5]): 0.00097 ± 0.00013 µM
IC50 ([2]; 4 days treatment): 46.8 µM
IC50 ([3]; 4 days treatment): 1.29 µM
Compound: CC[C@@H]1NC(=O)[C@H](CCCNC(=N)N)NC(=O)[C@](C)(NC(=O)C(C)C)CCCNC(=O)[C@@H](c2ccccc2)NC1=O [Cpd. No. 74, N-((3R,6S,9S,12R)-6-ethyl-9-(3-guanidinopropyl)-12-methyl-2,5,8,11-tetraoxo-3-phenyl-1,4,7,10-tetraazacyclopentadecan-12-yl)isobutyramide] (Isobutyryl-[d(αMeOrn)]R[Abu][dPhg]; lactam 1-C)

Compound: CC[C@H]1NC(=O)[C@@H](CCCNC(=N)N)NC(=O)[C@@](C)(NC(=O)C(C)C)CCCCNC(=O)[C@H](c2ccccc2)NC1=O [Cpd. No. 70, N-((3S,6R,9R,12S)-6-ethyl-9-(3-guanidinopropyl)-12-methyl-2,5,8,11-tetraoxo-3-phenyl-1,4,7,10-tetraazacyclohexadecan-12-yl)isobutyramide] (Isobutyryl-[αMeK][dR][dAbu][Phg]; lactam 1-C)
IC50 [1]: > 100 µM
IC50 [2]: > 100 µM
IC50 [3]: > 100 µM

IC50 ([1]; 4 days treatment): 37.6 ± 12.1 µM
Ki (WDR5; [4]): < 0.001 µM
IC50 (WDR5; [5]): 0.0026 ± 0.0002 µM
IC50 ([2]; 4 days treatment): > 100 µM
IC50 ([3]; 4 days treatment): 15.1 ± 11.8 µM
Compound: CC[C@@H]1NC(=O)[C@H](CCCNC(=N)N)NC(=O)[C@](C)(NC(=O)C(C)C)CCCCCNC(=O)[C@@H](c2ccccc2)NC1=O [Cpd. No. 75, N-((3R,6S,9S,12R)-6-ethyl-9-(3-guanidinopropyl)-12-methyl-2,5,8,11-tetraoxo-3-phenyl-1,4,7,10-tetraazacycloheptadecan-12-yl)isobutyramide]

Compound: CC[C@@H]1NC(=O)[C@H](CCCNC(=N)N)NC(=O)[C@](C)(NC(=O)C(C)C)CCCCN(C)C(=O)[C@@H](c2ccc(F)cc2)NC1=O [Cpd. No. 66, N-((3R,6S,9S,12R)-6-ethyl-3-(4-fluorophenyl)-9-(3-guanidinopropyl)-1,12-dimethyl-2,5,8,11-tetraoxo-1,4,7,10-tetraazacyclohexadecan-12-yl)isobutyramide] (Isobutyryl-[dαMeLys(Me)]R[Abu][dPhg(4-F)]; lactam 1-C)
IC50 [1]: 16.2 ± 6.1 µM
IC50 (WDR5): 0.0016 ± 0.001 µM
Ki (WDR5): < 0.001 µM
IC50 [2]: 60 ± 19.7 µM
IC50 [3]: 5.2 ± 1.1 µM

Compound: CC[C@@H]1NC(=O)[C@H](CCCN/C(=N/C)NC)NC(=O)[C@](C)(NC(=O)C(C)C)CCCCNC(=O)[C@@H](c2ccccc2)NC1=O [Cpd. No. 69, N-((3R,6S,9S,12R)-9-(3-((E)-2,3-dimethylguanidino)propyl)-6-ethyl-12-methyl-2,5,8,11-tetraoxo-3-phenyl-1,4,7,10-tetraazacyclohexadecan-12-yl)isobutyramide] (Isobutyryl-[d(αMeK)][Arg(Me2s)][Abu][dPhg]; lactam 1-C)
IC50 [1]: 31.5 ± 9.8 µM
IC50 (WDR5): 0.0024 ± 0.0007 µM
Ki (WDR5): < 0.001 µM
IC50 [2]: 84.8 ± 13.2 µM
IC50 [3]: 15.2 ± 2.9 µM

Compound: CC[C@@H]1NC(=O)[C@H](CCCNC(=N)N)NC(=O)[C@](C)(NC(=O)C(C)C)CCCCNC(=O)[C@@H](c2ccccc2)NC1=O [Cpd. No. 64, N-((3R,6S,9S,12R)-6-ethyl-9-(3-guanidinopropyl)-12-methyl-2,5,8,11-tetraoxo-3-phenyl-1,4,7,10-tetraazacyclohexadecan-12-yl)isobutyramide] (Isobutyryl-[d(αMeK)]R[Abu][dPhg]; lactam 1-C)
IC50 [2]: > 100 µM

Compound: N-((3R,6S,9S,12R)-6-ethyl-9-(3-guanidinopropyl)-2,5,8,11-tetraoxo-3-phenyl-1,4,7,10-tetraazacyclotridecan-12-yl)isobutyramide
ring closure, yield after HPLC (amide bond, 13-membered ring, HATU/DIEA, DMF, with chain assembly): 24.5%

IC50 ([1]; 4 days treatment): 0.28 ± 0.02 µM
Ki (WDR5; [4]): < 0.001 µM
IC50 (WDR5; [5]): 0.00108 ± 0.00012 µM
IC50 ([2]; 4 days treatment): 17.4 µM
IC50 ([3]; 4 days treatment): 0.46 ± 0.02 µM
Compound: CC[C@@H]1NC(=O)[C@H](CCCNC(=N)N)NC(=O)[C@](C)(NC(=O)C(C)C)CCNC(=O)[C@@H](c2ccccc2)NC1=O [Cpd. No. 4, N-((3R,6S,9S,12R)-6-ethyl-9-(3-guanidinopropyl)-12-methyl-2,5,8,11-tetraoxo-3-phenyl-1,4,7,10-tetraazacyclotetradecan-12-yl)isobutyramide] (Isobutyryl-[dαMeDab]R[Abu][dPhg]; lactam 1-C)

Compound: CC[C@@H]1NC(=O)[C@H](CCCNC(=N)NS(=O)(=O)c2c(C)c(C)c3c(c2C)CC(C)(C)O3)NC(=O)[C@](C)(NC(=O)C(C)C)CC=CCCCCCNC(=O)[C@@H](c2ccccc2)NC1=O
ring closure, yield after HPLC (from iPrCO-(R)-αMe-allylGly-Arg(Pbf)-Abu-dPhg-NH-(hept-6-enyl)?, rcm bond, 20-membered ring, Hoveyda-Grubbs II (0.5 eq), CH2Cl2, 25.0 °C, 3 steps): 27%

Compound: CC[C@@H]1NC(=O)[C@H](CCCNC(=N)NS(=O)(=O)c2c(C)c(C)c3c(c2C)CC(C)(C)O3)NC(=O)[C@](C)(NC(=O)C(C)C)CC=CCN(C)C(=O)[C@@H](c2ccccc2)NC1=O
ring closure, yield after HPLC (from (R)—N-((6S,9S,12R)-9-ethyl-1-imino-14-methyl-7,10,13-trioxo-1-(2,2,4,6,7-pentamethyl-2,3-dihydrobenzofuran-5-sulfonamido)-12-phenyl-2,8,11,14-tetraazaheptadec-16-en-6-yl)-2-isobutyramido-2-methylpent-4-enamide, rcm bond, 16-membered ring, Hoveyda-Grubbs II (0.5+0.5 eq), CH2Cl2, 45.0 °C, 3 steps): 18%

Compound: CC[C@@H]1NC(=O)[C@H](CCCNC(=N)NS(=O)(=O)c2c(C)c(C)c3c(c2C)CC(C)(C)O3)NC(=O)[C@](C)(NC(=O)C(C)C)CC=CCCNC(=O)[C@@H](c2ccccc2)NC1=O
ring closure, yield after HPLC (from iPrCO-(R)-αMe-allylGly-Arg(Pbf)-Abu-dPhg-NH-(but-3-enyl)?, rcm bond, 17-membered ring, Hoveyda-Grubbs II (0.5 eq), CH2Cl2, 25.0 °C, 3 steps): 28%

Compound: N-((3R,6S,12R)-6-ethyl-12-methyl-2,5,8,11-tetraoxo-3-phenyl-9-(3-phenylpropyl)-1,4,7,10-tetraazacyclotetradecan-12-yl)isobutyramide
ring closure, yield after HPLC [6]: 7%

Compound: CC[C@@H]1NC(=O)[C@H](CCCNC(=N)NS(=O)(=O)c2c(C)c(C)c3c(c2C)CC(C)(C)O3)NC(=O)[C@](C)(NC(=O)C(C)C)CC=CCNC(=O)[C@@H](c2ccccc2)NC1=O
ring closure, yield after HPLC (from iPrCO-(R)-αMe-allylGly-Arg(Pbf)-Abu-dPhg-NH-allyl?, rcm bond, 16-membered ring, Hoveyda-Grubbs II (0.5 eq), CH2Cl2, 25.0 °C, 3 steps): 53%

Compound: N-((3R,6S,12R)-6-ethyl-12-methyl-2,5,8,11-tetraoxo-9-phenethyl-3-phenyl-1,4,7,10-tetraazacyclotetradecan-12-yl)isobutyramide
ring closure, yield after HPLC [6]: 7%

Compound: CC[C@@H]1NC(=O)[C@H](CCCN/C(=N\C)NS(=O)(=O)c2c(C)c(C)c3c(c2C)CC(C)(C)O3)NC(=O)[C@](C)(NC(=O)C(C)C)CC=CCNC(=O)[C@@H](c2ccccc2)NC1=O
ring closure, yield after HPLC (from (R)—N-((8S,11S,14R,E)-11-ethyl-9,12,15-trioxo-3-(2,2,4,6,7-pentamethyl-2,3-dihydrobenzofuran-5-sulfonamido)-14-phenyl-2,4,10,13,16-pentaazanonadeca-2,18-dien-8-yl)-2-isobutyramido-2-methylpent-4-enamide, rcm bond, 16-membered ring, Hoveyda-Grubbs II (0.5 eq), CH2Cl2, 25.0 °C, 3 steps): 75%

Compound: N-((3R,6S,9S,12R)-6-ethyl-9-(3-guanidinopropyl)-2,5,8,11-tetraoxo-3-phenyl-1,4,7,10-tetraazacyclotetradecan-12-yl)isobutyramide
ring closure, yield after HPLC [6]: 21.7%

Compound: N-((3R,6S,9S,12R)-6-ethyl-12-methyl-9-(3-(3-methylguanidino)propyl)-2,5,8,11-tetraoxo-3-phenyl-1,4,7,10-tetraazacyclotetradecan-12-yl)isobutyramide
ring closure, yield after HPLC [6]: 15.4%

Compound: N-((3R,6S,9S,12R)-6-ethyl-9-(3-guanidinopropyl)-12-methyl-2,5,8,11-tetraoxo-3-phenyl-1,4,7,10-tetraazacyclotetradecan-12-yl)isobutyramide
ring closure, yield after HPLC [6]: 8.7%

Compound: N-((3R,6S,9S,12R)-6-ethyl-9-(3-guanidinopropyl)-2,5,8,11-tetraoxo-3-phenyl-1,4,7,10-tetraazacyclopentadecan-12-yl)isobutyramide
ring closure, yield after HPLC (amide bond, 15-membered ring, HATU/DIEA, DMF, with chain assembly): 21.5%

Compound: CC[C@@H]1NC(=O)[C@H](CCCNC(=N)NC)NC(=O)[C@](C)(NC(=O)C(C)C)CCCCNC(=O)[C@@H](c2ccccc2)NC1=O [Cpd. No. 68, N-((3R,6S,9S,12R)-6-ethyl-12-methyl-9-(3-(3-methylguanidino)propyl)-2,5,8,11-tetraoxo-3-phenyl-1,4,7,10-tetraazacyclohexadecan-12-yl)isobutyramide] (Isobutyryl-[d(αMeK)][Arg(Me)][Abu][dPhg]; lactam 1-C)
IC50 [1]: 3.6 ± 0.8 µM
IC50 (WDR5): 0.0011 ± 0.0003 µM
Ki (WDR5): < 0.001 µM
IC50 [2]: > 100 µM
IC50 [3]: 4.3 ± 1.5 µM

IC50 ([1]; 4 days treatment): 14.3 ± 0.9 µM
Ki (WDR5; [4]): < 0.001 µM
IC50 (WDR5; [5]): 0.002 ± 0.0001 µM
IC50 ([3]; 4 days treatment): 35 ± 4.4 µM
Compound: CC[C@@H]1NC(=O)[C@H](CCCNC(=N)NC)NC(=O)[C@](C)(NC(=O)C(C)C)CCNC(=O)[C@H](c2ccccc2)NC1=O [Cpd. No. 62, N-((3S,6S,9S,12R)-6-ethyl-12-methyl-9-(3-(3-methylguanidino)propyl)-2,5,8,11-tetraoxo-3-phenyl-1,4,7,10-tetraazacyclotetradecan-12-yl)isobutyramide] (Isobutyryl-[dαMeDab][Arg(Me)][Abu][Phg]; lactam 1-C)
